This is an account of results in paper PMC5052702 (Nature Communications, 2016).

Several values for one entry are separate records, joined by “and”; a condition that tells them apart may be missing. Equal entries are not always repeated. Where two headings read alike, the source gives them in different places. Some results are limits rather than exact numbers.

Experiment [1] addresses T1, Coxsackie virus 3C protease (Coxsackievirus B3, UniProt P03313).
T1 construct: 3C protease of Coxsackie virus B3 consisting of 183 amino-acid residues; made in house; host or cells: E. coli BL21(DE3), plasmid pET-23a(+)
Put plainly: ESI-MS of protease after incubation with inhibitor (covalent modification). It counts as binding. The note with it: deconvoluted ESI-MS, main peak. As for the experimental part: This inactivation rate corresponded to an apparent half-maximal inhibitory concentration (IC50) value of >>1 mM after 10 min (Fig. 2b, Table 1). The covalent mode of action was confirmed by electrospray ionization high-resolution ion mobility spectrometry-mass spectrometry (ESI-MS) measurements. Incubation of the protease with warhead 1 shifted the main deconvoluted mass peak of the protein from 21,471.5 to 21,588.5 Da and the observed protein mass difference of 117 Da corresponded well with the molecular weight of bis-electrophile 1 after hydrolysis of the ethyl ester.
High-resolution mass spectra were recorded on a Synapt G2-S HDMS by Waters Co. (Milford, […]) equipped with an Acquity UPLC and a Phenomenex Jupiter C-18 column (3 × 250 mm, 5 μm, 300 Å). The ionization and transfer parameters of the MS system have been optimized for a standard sample (insulin) and were applied without modification. Deconvolution of measurement results was performed by the MaxEnt1 method of the MassLynx software by Waters Co. The most important source parameters are: capillary voltage: 3.3 kV, sampling cone: 40 V, source offset: 60 V, source temperature: 100 °C, desolvation temperature: 250 °C, desolvation gas flow: 600 l h^−1. […]

The target of another experiment is T2, CVB3 3C protease (Coxsackievirus B3, UniProt P03313).
T2 construct: 3C protease of Coxsackie virus B3 consisting of 183 amino-acid residues; made in house; host or cells: E. coli BL21(DE3), plasmid pET-23a(+)
Put plainly: FRET-based enzyme activity assay (warhead activation / inhibitor kinetics). In kind it is biochemical, Coxsackie virus B3. Particulars: for kinact/KI: relative inactivation rate, slope of kobs against inhibitor concentration. As for the experimental part: The activity of the protease was measured by hydrolysis of the FRET-substrate N-Dabcyl-KTLEALFQ↓GPPVYE(Edans)-NH2. The peptide was purchased from Biosyntan (Berlin, Germany). Samples were irradiated with light with a wavelength of 355 nm and the emitted light at 538 nm was measured in relative fluorescence units (RFUs). An amount of 100 pmol of cleaved substrate equals 5,000 RFU.
Assay samples contained 10 μl of a 100 mM HEPES-NaOH buffer solution pH 7.5/1 mM EDTA, 10 μl enzyme solution (2 μM CVB3 3C^Pro), 10 μl of 10 μM substrate solution (both dissolved in the above buffer) and 1 μl Inhibitor and/or fragment dissolved in DMSO. For assay results of a dilution series of a mixture of 1 and 2 and comparison of reaction products in dependence of the assay solvent, see Supplementary Figs 1 and 2.
The screening procedure consisted of the following steps: 10 μl 100 mM HEPES-NaOH buffer solution pH 7.5/1 mM EDTA was placed in a cavity of the 384-well plate (polystyrene, Corning 3544). Then 10 μl of enzyme solution (40 μM CVB3 3C protease in 100 mM HEPES-NaOH buffer solution, pH 7.5/1 mM EDTA) was added and the plate was shaken for 2 min at 1,400 r.p.m. Afterwards, 0.5 μl of a DMSO solution of the electrophilic probe and 0.5 μl of a DMSO solution of the nucleophile was added, followed by 10 μl of substrate solution (10 μM in 100 mM HEPES-NaOH buffer solution, pH 7.5/1 mM EDTA). The plate was shaken again for 2 min at 1,400 r.p.m. and the generated fluorescence signal was measured with a Safire II Fluorimeter from Tecan. The electrophilic probe 1 was used at a concentration of 400 μM for the screening, which lowered the protease activity by 10–20%. Eight-hundred fifty primary amines were tested at a concentration of 320 μM and fragment 2 amplified the inhibitory activity of 1 most potently. Positive control samples contained only DMSO instead of the probe or the nucleophile. Negative control samples contained no active enzyme. An interfering fluorescent effect has not been observed.
When determining the inhibitory parameters of an inhibitor, the assay set-up was as mentioned but 1 μl DMSO solution of inhibitor was used instead of probe or nucleophile. Different concentrations of inhibitor were tested at least as duplicates and the pseudo-first-order association kinetics (kobs) were determined using GraphPad Prism. The slope of a plot of the different kobs values against the inhibitor concentration yielded kinact/KI.

The target in another experiment is ERBV-1 3C protease (Equine rhinitis B virus 1, UniProt Q66776). Put plainly: In vitro proteolytic activity assay (HPLC, 3 h incubation). It counts as biochemical. As for the experimental part: (§1) For 12 and 14, the inhibitory activity decreased for EV-B93>PSV-1>ERBV-1>AiV-1>EV-D68>HRV-A49.
(§2) A volume of 100 μl of reaction mixture containing 1.9 μM 3C protease, 25 μM substrate peptide, 5% DMSO, buffer (30 mM Tris pH 8.0, and 50 mM NaCl or 50 mM HEPES pH 7.4 and 50 mM NaCl) and (optionally) different concentrations of inhibitor was incubated in 37 °C during 3 h. The reaction was quenched by addition of 0.5% (final concentration) TFA. Samples were analysed by HPLC on SOURCE 15RPC ST 4.6/100 column using: 2–90% linear gradient of ACN in 0.1% TFA. The 3C protease activity in the absence of inhibitor was defined as 100%. The following peptides (GL Biochem, Shanghai, China) were dissolved in DMSO at a concentration of 5 mM and used for testing 3C proteases activity (Table 3).

A further experiment concerns the target PSV-1 3C protease (Porcine sapelovirus 1, UniProt Q8JJT0). The experiment is described as above. It counts as biochemical. As for the experimental part:
as §1, §2

The next experiment deals with T3, EV-D68 3C protease (Human enterovirus D68, UniProt Q68T42).
T3 construct: a panel of six additional rhinoviral and enteroviral 3C proteases; purchased European Virus Archive
Described as above. It counts as biochemical. The protocol:
as §1, §2

The target of a further experiment is T4, Human Caspase-3 (Homo sapiens, UniProt P42574).
T4 sequence (P42574 29-175 limits assumed): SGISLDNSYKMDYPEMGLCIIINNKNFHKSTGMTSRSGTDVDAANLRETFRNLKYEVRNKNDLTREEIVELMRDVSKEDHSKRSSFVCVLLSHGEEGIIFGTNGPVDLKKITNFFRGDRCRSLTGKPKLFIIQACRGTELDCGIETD
T4 sequence (P42574 176-277 limits assumed): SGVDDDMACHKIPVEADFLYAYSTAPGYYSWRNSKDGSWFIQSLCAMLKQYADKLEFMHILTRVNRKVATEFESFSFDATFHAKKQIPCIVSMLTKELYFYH
Put plainly: Side reactivity testing against different proteases. In kind it is biochemical. As for the experimental part: (§3) The four enzymes cover a broad range of S1-preferences, namely for arginine/lysine (trypsin, factor Xa), hydrophobic residues (chymotrypsin) and aspartate (caspase-3).
(§4) Supplementary Table 3. Side reactivity testing of selected compounds against different
(§5) Cpd# Structure Trypsin1) Chymotrypsin2) Human factor Xa3) Human Caspase-34) […]
4) in 50 mM HEPES-NaOH pH 7.5 / 100 mM NaCl / 1 mM EDTA / 0.1% (w/v) CHAPS / 10% (v/v) glycerol /2 mM DTT
with 10 µM acetyl-DEVD-AMC as substrate;

The next experiment has as its target T5, AiV-1 3C protease (Aichi virus, UniProt O91464).
T5 construct: a panel of six additional rhinoviral and enteroviral 3C proteases; purchased European Virus Archive
Put plainly: In vitro proteolytic activity assay (HPLC, 3 h incubation). In kind it is biochemical, Aichi virus 1. The protocol: as §1, §2

The target of a further experiment is T6, CBV 3C protease (Coxsackievirus B3, UniProt P03313).
T6 construct: 3C protease of Coxsackie virus B3 consisting of 183 amino-acid residues; made in house; host or cells: E. coli BL21(DE3), plasmid pET-23a(+)
Put plainly: In vitro proteolytic activity assay (3 h incubation). The note with it: fixed enzyme concentration. It counts as biochemical, Coxsackie virus B3. As for the experimental part: as §2

For a further experiment, the target named is HRV-A49 3C protease (Rhinovirus A49, UniProt A5GZE5). Put plainly: In vitro proteolytic activity assay (HPLC, 3 h incubation). It counts as biochemical, human rhinovirus A49. The protocol:
as §1, §2

A further experiment has as its target EV-B93 3C protease (Enterovirus B93 (species Enterovirus B), UniProt Q5DSM6). The description is as above. In kind it is biochemical, human enterovirus B93. As for the experimental part: as §1, §2
The next experiment has as its system Chymotrypsin. Put plainly: Side reactivity testing against different proteases. In kind it is biochemical. The protocol:
as §3, §4, §5
2) in 50 mM MOPS-NaOH pH 8.0 / 154 mM NaCl with 1.6 mM AF-AMC as substrate. […]

For the next experiment, the target named is Human factor Xa (Homo sapiens, UniProt P00742). Described as above. In kind it is biochemical. The protocol:
as §3, §4, §5
3) in 50 mM MOPS-NaOH pH 8.0 / 154 mM NaCl with 114 µM Boc-LGR-AMC as substrate; […]

For another experiment, the system named is Trypsin. The description is as above. It counts as biochemical. Particulars: 50 mM MOPS-NaOH pH 8.0 / 154 mM NaCl, 57 µM Boc-LGR-AMC as substrate. The protocol:
as §3, §4
Cpd# Structure Trypsin1) Chymotrypsin2) Human factor Xa3) Human Caspase-34)
1) in 50 mM MOPS-NaOH pH 8.0 / 154 mM NaCl with 57 µM tert. butyloxycarbonyl (Boc)-LGR-7-amino-4-
methylcoumarin (AMC) as substrate; […]

The mark [2] stands for this setting: fixed enzyme concentration, 3 h incubation.
The mark [3] stands for this setting: protein inhibitor stoichiometries of 1:1 and 1:3.

Human factor Xa, sequence (P00742 235-488 limits assumed): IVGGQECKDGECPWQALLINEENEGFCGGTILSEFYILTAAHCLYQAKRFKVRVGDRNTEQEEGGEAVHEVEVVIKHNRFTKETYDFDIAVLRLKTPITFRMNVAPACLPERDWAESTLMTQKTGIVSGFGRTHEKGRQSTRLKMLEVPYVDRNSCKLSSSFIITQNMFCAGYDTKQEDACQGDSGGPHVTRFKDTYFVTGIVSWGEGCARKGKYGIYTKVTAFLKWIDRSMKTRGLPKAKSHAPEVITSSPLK
Human factor Xa, sequence (P00742 41-179 partner limits assumed): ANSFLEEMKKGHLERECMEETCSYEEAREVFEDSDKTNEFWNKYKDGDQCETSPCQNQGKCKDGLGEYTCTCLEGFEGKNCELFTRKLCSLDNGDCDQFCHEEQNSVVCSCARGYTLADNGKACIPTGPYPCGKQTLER

Consider `CCOC(=O)[C@H]1O[C@@H]1C=O` [Compound 1, ethyl (2S,3S)-epoxy-4-oxo-butanoate], for which, in experiment [1], the “observed protein mass difference after incubation” value is on record as 117 Da. Also, on CVB3 3C protease, the “inhibition of the protease, in words” value is “virtually inactive”; the kinact/KI is 2.36 M⁻¹ s⁻¹ and 2.4 ± 0.1 M⁻¹ s⁻¹. The IC50 at CVB3 3C protease (after 10 min, read-out: apparent half-maximal inhibitory concentration (IC50)) was over 1 mM. Moreover, the “lowering of protease activity” value on CVB3 3C protease (probe at 400 μM, screening) is listed as 10–20%.
On to `O=C(/C=C/S(=O)(=O)c1ccccc1)Nc1cc(=O)[nH]n1C1CCCCCC1` [Compound 20], for which the IC50 was 500 nM on ERBV-1 3C protease (setting [2]); 300 nM against PSV-1 3C protease (setting [2]); 1000 nM at EV-D68 3C protease (fixed enzyme concentration, 3 h incubation, read-out: IC50 HEV-D68); over 300 µM at Human Caspase-3 (50 mM HEPES-NaOH pH 7.5, 10 µM acetyl-DEVD-AMC as substrate); 500 nM at AiV-1 3C protease (setting [2]); 400 nM on CBV 3C protease. For the same molecule, the IC50 on HRV-A49 3C protease (setting [2]) is 300 nM; against EV-B93 3C protease (setting [2]), 200 nM; in the experiment on Chymotrypsin (50 mM MOPS-NaOH pH 8.0 / 154 mM NaCl, 1.6 mM AF-AMC as substrate) it was over 500 µM; at Human factor Xa (50 mM MOPS-NaOH pH 8.0 / 154 mM NaCl, 114 µM Boc-LGR-AMC as substrate), over 500 µM; in the experiment on Trypsin it was over 500 µM. In addition, the “reduction of protease activity” value on ERBV-1 3C protease (setting [3]), at PSV-1 3C protease (setting [3]), on EV-D68 3C protease (setting [3]), at AiV-1 3C protease (setting [3]), on HRV-A49 3C protease (setting [3]) and at EV-B93 3C protease (setting [3]) was “strongly reduced the activity” in each case. On Human Caspase-3 (at concentrations of 100 μM), the “activity against caspase-3, in words” value is “inactive”. In addition, the “inhibition of the enzyme” value on EV-B93 3C protease (one inhibitor equivalent) is recorded as “fully inhibited”. Besides, the kinact/KI on CVB3 3C protease is 1,007 M^−1 s^−1 and 1,007.7±102.2 M^−1 s^−1; at CVB3 3C protease (read-out: kinact/KI), 1010 M⁻¹ s⁻¹. In addition, the “activity against chymotrypsin, in words” value in the experiment with Chymotrypsin (at concentrations of 100 μM) was “inactive”. The “activity against factor Xa, in words” value on Human factor Xa (at concentrations of 100 μM) is “inactive”.
